# Laboratory results published in ChEMBL document CHEMBL3877302, “Design and Synthesis of a New Series of 4-Heteroarylamino-1'-azaspiro[oxazole-5,3'-bicyclo[2.2.2]octanes as α7 Nicotinic Receptor Agonists. 1. Development of Pharmacophore and Early Structure-Activity Relationship” (J Med Chem, 2016).
# pEC50, pIC50: −log10 of the molar value. Activity calls are given as the source filed them. The rule behind the calls is not given here.
# Legend:
# [1] = Metabolic stability in human microsomes assessed as compound remaining measured after 10 mins; type: ADME, Microsome; conditions: read-out: Stability
# [2] = Metabolic stability in mouse microsomes assessed as compound remaining measured after 10 mins; type: ADME, Microsome; conditions: read-out: Stability
# [3] = Metabolic stability in rat microsomes assessed as compound remaining measured after 10 mins; type: ADME, Microsome; conditions: read-out: Stability
# [4] = biological target: Nicotinic acetylcholine receptor alpha-1/beta-1/delta/epsilon (Rattus norvegicus, UniProt P09660+P25108+P25109+P25110); experiment: Agonist activity at rat alpha1beta1deltaepsilon nAChR expressed in HEK293 cells for 2 mins by FLIPR assay; type: cell-based
# [5] = biological target: Neuronal acetylcholine receptor; alpha3/beta4 (Rattus norvegicus, UniProt P04757+P12392); experiment: Agonist activity at rat alpha3beta4 nAChR expressed in HEK293 cells for 2 mins by FLIPR assay; type: cell-based
# Neuronal acetylcholine receptor; alpha3/beta4, sequence (P04757 whole entry): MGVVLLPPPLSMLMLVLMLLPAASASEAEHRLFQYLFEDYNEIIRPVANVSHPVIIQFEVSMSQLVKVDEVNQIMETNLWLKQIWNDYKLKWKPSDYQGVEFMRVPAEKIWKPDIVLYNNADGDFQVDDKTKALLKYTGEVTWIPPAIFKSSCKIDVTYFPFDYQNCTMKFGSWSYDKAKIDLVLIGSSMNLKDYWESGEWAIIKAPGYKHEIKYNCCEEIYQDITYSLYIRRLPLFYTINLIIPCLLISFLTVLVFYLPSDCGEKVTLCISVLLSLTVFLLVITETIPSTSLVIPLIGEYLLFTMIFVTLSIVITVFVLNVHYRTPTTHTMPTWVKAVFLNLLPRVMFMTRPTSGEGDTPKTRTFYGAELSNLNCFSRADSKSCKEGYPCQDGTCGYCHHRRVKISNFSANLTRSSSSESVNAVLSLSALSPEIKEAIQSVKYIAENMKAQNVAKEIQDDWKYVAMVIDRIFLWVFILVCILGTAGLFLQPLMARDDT
# Neuronal acetylcholine receptor; alpha3/beta4, sequence (P12392 whole entry): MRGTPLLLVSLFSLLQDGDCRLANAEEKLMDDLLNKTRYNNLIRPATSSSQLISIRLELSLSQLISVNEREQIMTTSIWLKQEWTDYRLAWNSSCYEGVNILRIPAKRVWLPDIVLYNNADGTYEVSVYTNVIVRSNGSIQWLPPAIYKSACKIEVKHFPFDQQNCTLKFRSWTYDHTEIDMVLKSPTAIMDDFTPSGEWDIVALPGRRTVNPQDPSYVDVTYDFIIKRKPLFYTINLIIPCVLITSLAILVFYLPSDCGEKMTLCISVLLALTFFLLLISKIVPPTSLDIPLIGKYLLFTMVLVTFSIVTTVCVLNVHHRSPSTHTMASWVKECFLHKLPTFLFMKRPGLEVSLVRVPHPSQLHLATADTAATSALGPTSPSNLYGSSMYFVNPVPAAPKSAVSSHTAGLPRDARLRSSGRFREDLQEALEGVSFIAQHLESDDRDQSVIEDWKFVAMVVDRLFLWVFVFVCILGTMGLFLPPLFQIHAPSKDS
# [6] = biological target: Neuronal acetylcholine receptor; alpha4/beta2 (Rattus norvegicus, UniProt P09483+P12390); experiment: Agonist activity at rat alpha4beta2 nAChR expressed in HEK293 cells for 2 mins by FLIPR assay; type: cell-based
# Neuronal acetylcholine receptor; alpha4/beta2, sequence (P09483 whole entry): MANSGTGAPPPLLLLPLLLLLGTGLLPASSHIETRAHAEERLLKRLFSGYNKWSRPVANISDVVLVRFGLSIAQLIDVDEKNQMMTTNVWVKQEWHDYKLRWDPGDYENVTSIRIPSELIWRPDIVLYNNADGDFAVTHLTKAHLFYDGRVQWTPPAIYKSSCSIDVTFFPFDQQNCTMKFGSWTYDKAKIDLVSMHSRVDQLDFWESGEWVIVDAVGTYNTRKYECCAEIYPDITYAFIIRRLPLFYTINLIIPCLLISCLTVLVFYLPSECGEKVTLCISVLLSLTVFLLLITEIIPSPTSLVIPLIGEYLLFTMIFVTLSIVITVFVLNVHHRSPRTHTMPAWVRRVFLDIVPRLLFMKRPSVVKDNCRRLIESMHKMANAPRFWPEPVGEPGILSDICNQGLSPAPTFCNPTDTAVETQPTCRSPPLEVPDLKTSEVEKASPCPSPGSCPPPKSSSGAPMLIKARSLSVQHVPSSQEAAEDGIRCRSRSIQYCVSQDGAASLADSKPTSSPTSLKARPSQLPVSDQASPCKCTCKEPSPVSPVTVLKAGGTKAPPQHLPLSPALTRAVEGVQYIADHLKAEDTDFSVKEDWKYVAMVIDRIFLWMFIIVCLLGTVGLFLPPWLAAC
# Neuronal acetylcholine receptor; alpha4/beta2, sequence (P12390 whole entry): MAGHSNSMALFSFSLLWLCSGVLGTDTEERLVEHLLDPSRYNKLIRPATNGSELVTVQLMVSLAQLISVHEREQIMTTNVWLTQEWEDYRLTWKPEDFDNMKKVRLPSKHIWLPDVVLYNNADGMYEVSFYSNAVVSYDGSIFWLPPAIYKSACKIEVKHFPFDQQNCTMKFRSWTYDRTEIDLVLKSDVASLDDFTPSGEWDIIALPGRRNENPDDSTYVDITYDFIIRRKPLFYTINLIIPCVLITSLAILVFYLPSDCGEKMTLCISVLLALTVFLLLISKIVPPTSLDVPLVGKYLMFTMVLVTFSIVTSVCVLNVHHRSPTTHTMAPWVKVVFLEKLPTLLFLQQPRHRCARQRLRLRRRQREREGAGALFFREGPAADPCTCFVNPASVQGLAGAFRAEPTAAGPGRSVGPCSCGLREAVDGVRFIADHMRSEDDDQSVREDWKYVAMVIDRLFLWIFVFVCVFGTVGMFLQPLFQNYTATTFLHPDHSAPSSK
# [7] = biological target: T1, Cytochrome P450 3A4 (Homo sapiens, UniProt P08684); experiment: Inhibition of human CYP3A4 using BFC as substrate; type: ADME
# T1 sequence (P08684 whole entry): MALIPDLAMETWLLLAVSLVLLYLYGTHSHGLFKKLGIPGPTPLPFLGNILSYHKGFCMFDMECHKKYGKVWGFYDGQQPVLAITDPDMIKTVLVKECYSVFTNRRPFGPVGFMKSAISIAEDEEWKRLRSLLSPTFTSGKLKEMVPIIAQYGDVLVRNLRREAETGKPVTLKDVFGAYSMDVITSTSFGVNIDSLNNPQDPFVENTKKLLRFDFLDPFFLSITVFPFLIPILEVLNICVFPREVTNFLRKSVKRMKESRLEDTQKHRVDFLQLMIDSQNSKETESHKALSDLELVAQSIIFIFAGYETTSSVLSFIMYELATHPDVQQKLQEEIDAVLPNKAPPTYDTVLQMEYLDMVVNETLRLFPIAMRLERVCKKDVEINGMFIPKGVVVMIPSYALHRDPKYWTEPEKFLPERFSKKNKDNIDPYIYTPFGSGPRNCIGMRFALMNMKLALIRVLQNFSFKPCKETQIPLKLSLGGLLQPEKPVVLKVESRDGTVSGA
# [8] = biological target: T1, Cytochrome P450 3A4; experiment: Inhibition of human CYP3A4 using BZR as substrate; type: ADME
# [9] = biological target: T2, Cytochrome P450 1A2 (Homo sapiens, UniProt P05177); experiment: Inhibition of human CYP1A2; type: ADME
# T2 sequence (P05177 whole entry): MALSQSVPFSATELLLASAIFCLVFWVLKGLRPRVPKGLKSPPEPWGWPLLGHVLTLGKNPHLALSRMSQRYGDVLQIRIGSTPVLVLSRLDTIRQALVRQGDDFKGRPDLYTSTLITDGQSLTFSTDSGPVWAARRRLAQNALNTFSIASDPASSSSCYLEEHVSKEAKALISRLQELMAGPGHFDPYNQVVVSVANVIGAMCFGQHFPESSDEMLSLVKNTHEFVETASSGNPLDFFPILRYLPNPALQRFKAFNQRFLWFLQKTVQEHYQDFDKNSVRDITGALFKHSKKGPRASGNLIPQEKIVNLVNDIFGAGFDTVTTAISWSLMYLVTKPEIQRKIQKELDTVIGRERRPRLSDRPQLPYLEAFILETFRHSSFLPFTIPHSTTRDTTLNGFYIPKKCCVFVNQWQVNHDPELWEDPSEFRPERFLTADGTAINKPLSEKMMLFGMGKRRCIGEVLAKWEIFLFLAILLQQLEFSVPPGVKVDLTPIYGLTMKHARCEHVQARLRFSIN
# [10] = biological target: T3, Cytochrome P450 2B6 (Homo sapiens, UniProt P20813); experiment: Inhibition of human CYP2B6; type: ADME
# T3 sequence (P20813 whole entry): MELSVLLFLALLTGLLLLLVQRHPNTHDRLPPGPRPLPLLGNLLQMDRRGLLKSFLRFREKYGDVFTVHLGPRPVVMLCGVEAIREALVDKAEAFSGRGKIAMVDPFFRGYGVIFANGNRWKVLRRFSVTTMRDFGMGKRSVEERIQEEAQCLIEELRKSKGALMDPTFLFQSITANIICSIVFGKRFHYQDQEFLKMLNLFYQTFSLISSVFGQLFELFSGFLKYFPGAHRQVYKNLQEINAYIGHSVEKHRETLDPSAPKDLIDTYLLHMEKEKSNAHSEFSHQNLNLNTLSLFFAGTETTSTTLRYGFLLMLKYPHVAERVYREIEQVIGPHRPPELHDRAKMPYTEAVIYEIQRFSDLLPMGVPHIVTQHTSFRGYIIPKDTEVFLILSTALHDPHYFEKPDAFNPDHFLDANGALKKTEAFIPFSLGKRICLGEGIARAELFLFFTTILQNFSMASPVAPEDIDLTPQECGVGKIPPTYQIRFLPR
# [11] = biological target: T4, Cytochrome P450 2C8 (Homo sapiens, UniProt P10632); experiment: Inhibition of human CYP2C8; type: ADME
# T4 sequence (P10632 whole entry): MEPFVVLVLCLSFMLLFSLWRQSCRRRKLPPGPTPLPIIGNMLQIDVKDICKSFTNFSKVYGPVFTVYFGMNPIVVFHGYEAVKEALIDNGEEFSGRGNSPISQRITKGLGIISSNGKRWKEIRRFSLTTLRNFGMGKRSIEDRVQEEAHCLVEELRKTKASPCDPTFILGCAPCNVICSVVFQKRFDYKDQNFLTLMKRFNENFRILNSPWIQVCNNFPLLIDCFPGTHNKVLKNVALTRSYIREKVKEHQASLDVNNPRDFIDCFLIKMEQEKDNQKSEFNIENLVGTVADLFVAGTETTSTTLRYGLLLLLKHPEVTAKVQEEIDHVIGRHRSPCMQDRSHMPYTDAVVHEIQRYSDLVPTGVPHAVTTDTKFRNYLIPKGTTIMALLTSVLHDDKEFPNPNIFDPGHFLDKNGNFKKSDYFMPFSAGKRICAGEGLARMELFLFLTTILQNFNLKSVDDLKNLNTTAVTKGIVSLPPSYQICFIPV
# [12] = biological target: Cytochrome P450 2C9 (Homo sapiens, UniProt P11712); experiment: Inhibition of human CYP2C9; type: ADME
# Cytochrome P450 2C9, sequence (P11712 whole entry): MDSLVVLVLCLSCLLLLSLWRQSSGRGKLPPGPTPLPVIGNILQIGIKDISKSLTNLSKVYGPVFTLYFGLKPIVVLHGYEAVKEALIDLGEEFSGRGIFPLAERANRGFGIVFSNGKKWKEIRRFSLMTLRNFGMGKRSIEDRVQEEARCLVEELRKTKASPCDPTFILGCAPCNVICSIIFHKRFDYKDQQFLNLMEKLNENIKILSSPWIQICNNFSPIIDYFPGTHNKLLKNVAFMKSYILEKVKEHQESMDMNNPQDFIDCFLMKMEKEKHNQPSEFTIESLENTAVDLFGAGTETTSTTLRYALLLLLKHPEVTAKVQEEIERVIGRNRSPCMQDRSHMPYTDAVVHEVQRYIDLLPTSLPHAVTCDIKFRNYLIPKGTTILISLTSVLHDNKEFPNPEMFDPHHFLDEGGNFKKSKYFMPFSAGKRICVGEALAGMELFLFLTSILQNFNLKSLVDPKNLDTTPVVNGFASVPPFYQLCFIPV
# [13] = biological target: Cytochrome P450 2C19 (Homo sapiens, UniProt P33261); experiment: Inhibition of human CYP2C19; type: ADME
# Cytochrome P450 2C19, sequence (P33261 whole entry): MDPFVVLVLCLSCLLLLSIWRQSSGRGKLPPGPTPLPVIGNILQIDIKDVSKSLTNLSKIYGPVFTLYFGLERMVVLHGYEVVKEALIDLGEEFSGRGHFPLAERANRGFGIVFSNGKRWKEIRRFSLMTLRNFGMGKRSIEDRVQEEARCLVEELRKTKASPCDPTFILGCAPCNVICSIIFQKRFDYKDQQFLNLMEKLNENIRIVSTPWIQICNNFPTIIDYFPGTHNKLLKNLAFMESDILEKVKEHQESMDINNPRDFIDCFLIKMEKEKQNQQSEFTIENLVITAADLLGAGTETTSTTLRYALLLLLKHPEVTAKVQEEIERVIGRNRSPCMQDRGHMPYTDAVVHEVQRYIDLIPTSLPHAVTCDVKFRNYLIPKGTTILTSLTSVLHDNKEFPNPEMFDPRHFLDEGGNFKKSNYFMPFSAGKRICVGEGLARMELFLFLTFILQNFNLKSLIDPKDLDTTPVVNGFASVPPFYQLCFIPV
# [14] = biological target: Cytochrome P450 2D6 (Homo sapiens, UniProt P10635); experiment: Inhibition of human CYP2D6; type: ADME
# Cytochrome P450 2D6, sequence (P10635 whole entry): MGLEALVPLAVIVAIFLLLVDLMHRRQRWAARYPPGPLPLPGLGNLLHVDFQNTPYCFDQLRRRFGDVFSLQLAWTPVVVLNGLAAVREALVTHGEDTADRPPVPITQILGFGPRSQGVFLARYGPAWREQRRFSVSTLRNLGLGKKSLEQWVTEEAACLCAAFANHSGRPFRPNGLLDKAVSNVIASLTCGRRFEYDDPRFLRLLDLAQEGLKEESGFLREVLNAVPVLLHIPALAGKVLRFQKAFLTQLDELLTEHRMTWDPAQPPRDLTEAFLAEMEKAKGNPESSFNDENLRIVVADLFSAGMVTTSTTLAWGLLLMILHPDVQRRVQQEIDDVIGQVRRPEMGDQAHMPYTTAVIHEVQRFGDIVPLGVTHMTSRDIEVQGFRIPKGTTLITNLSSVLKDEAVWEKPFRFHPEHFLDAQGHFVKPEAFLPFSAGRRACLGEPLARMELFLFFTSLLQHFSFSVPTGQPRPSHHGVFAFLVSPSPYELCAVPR
# [15] = Fraction unbound in human plasma; type: ADME, cell-free
# [16] = Fraction unbound in rat plasma; type: ADME, cell-free
# [17] = Fraction unbound in mouse plasma; type: ADME, cell-free
# [18] = test system: Mus musculus; experiment: Cognitive enhancing effect in C57Bl/6 mouse at 0.1 to 1 mg/kg, sc administered 30 mins prior to training measured after 24 hrs by novel recognition assay; type: functional, organism-based
# [19] = test system: Mus musculus; experiment: Cognitive enhancing effect in C57Bl/6 mouse administered subcutaneously for 30 mins prior to training measured after 24 hrs by novel recognition assay; type: functional; conditions: C57Bl/6, sc, read-out: MED
# [20] = test system: Mus musculus; experiment: Cognitive enhancing effect in C57Bl/6 mouse at 0.3 mg/kg, sc administered 30 mins to 6 hrs prior to training measured after 24 hrs by novel recognition assay; type: functional, organism-based
# [21] = Drug uptake in C57Bl/6 mouse NOR model brain at 0.03 mg/kg, sc measured after 0.5 hrs; type: ADME, organism-based; conditions: read-out: Drug uptake
# [22] = Drug uptake in C57Bl/6 mouse NOR model brain at 0.1 mg/kg, sc measured after 0.5 hrs; type: ADME, organism-based; conditions: read-out: Drug uptake
# [23] = Drug uptake in C57Bl/6 mouse NOR model brain at 0.3 mg/kg, sc measured after 0.5 hrs; type: ADME, organism-based; conditions: read-out: Drug uptake
# [24] = Drug uptake in C57Bl/6 mouse NOR model brain at 1 mg/kg, sc measured after 0.5 hrs; type: ADME, organism-based; conditions: read-out: Drug uptake
# [25] = Drug uptake in C57Bl/6 mouse NOR model brain at 0.3 mg/kg, sc measured after 2 hrs; type: ADME, organism-based; conditions: read-out: Drug uptake
# [26] = Drug uptake in C57Bl/6 mouse NOR model brain at 0.3 mg/kg, sc measured after 6 hrs; type: ADME, organism-based; conditions: read-out: Drug uptake
# [27] = Plasma concentration in C57Bl/6 mouse NOR model at 0.03 mg/kg, sc measured after 0.5 hrs; type: ADME, organism-based
# [28] = Plasma concentration in C57Bl/6 mouse NOR model at 0.1 mg/kg, sc measured after 0.5 hrs; type: ADME, organism-based
# [29] = Plasma concentration in C57Bl/6 mouse NOR model at 0.3 mg/kg, sc measured after 0.5 hrs; type: ADME, organism-based
# [30] = Plasma concentration in C57Bl/6 mouse NOR model at 1 mg/kg, sc measured after 0.5 hrs; type: ADME, organism-based
# [31] = Plasma concentration in C57Bl/6 mouse NOR model at 0.3 mg/kg, sc measured after 2 hrs; type: ADME, organism-based
# [32] = Plasma concentration in C57Bl/6 mouse NOR model at 0.3 mg/kg, sc measured after 6 hrs; type: ADME, organism-based
# [33] = test system: Mus musculus; experiment: Reversal of NMDAR antagonist MK-801-induced memory deficits in C57Bl/6 mouse at 1 and 3 mg/kg, sc administered 30 mins prior to […] challenge measured after 30 mins by Y maze assay; type: functional, organism-based
structure (smiles),measurement,setting,value
c1ccc2cc(NC3=NC[C@@]4(CN5CCC4CC5)O3)ncc2c1,remaining at 10 min,[1],96%
same,remaining at 10 min,[2],1%
same,remaining at 10 min,[3],89%
same,pEC50,[4],< 4.00
same,pEC50,[5],< 4.00
same,pEC50,[6],< 4.00
same,pIC50,[7],< 4.40
same,pIC50,[8],< 4.40
same,pIC50,[9],< 4.40
same,pIC50,[10],< 4.40
same,pIC50,[11],< 4.40
same,pIC50,[12],< 4.40
same,pIC50,[13],< 4.40
same,pIC50,[14],< 4.40
same,fraction unbound,[15],0.247
same,fraction unbound,[16],0.269
same,fraction unbound,[17],0.23
same,Activity,[18],Active
same,minimal effective dose,[19],0.1 mg/kg
same,Activity,[20],Active
same,concentration at 0.5 h,[21],19 nM
same,concentration at 0.5 h,[22],57 nM
same,concentration at 0.5 h,[23],155 to 182 nM
same,concentration at 0.5 h,[24],744 nM
same,concentration at 2 h,[25],96 nM
same,concentration at 6 h,[26],18 nM
same,concentration at 0.5 h,[27],4 nM
same,concentration at 0.5 h,[28],16 nM
same,concentration at 0.5 h,[29],43 to 69 nM
same,concentration at 0.5 h,[30],184 nM
same,concentration at 2 h,[31],26 nM
same,concentration at 6 h,[32],9 nM
same,Activity,[33],Active
